Test results published in patent US20140296255A1, “LYSINE DEMETHYLASE INHIBITORS FOR THROMBOSIS AND CARDIOVASCULAR DISEASES” (ORYZONG GENOMICS, S.A., priority 2011, published 2014).
Read-outs that look alike come from different tables or passages of the source.

What was measured:
[1] = biological target: T1, Human recombinant monoamine oxidase MAO-A (Homo sapiens, UniProt P21397); assay: MAO-A inhibition, kynuramine fluorescence assay; type: biochemical
T1 construct: purchased Sigma Aldrich
T1 sequence (P21397 1-527): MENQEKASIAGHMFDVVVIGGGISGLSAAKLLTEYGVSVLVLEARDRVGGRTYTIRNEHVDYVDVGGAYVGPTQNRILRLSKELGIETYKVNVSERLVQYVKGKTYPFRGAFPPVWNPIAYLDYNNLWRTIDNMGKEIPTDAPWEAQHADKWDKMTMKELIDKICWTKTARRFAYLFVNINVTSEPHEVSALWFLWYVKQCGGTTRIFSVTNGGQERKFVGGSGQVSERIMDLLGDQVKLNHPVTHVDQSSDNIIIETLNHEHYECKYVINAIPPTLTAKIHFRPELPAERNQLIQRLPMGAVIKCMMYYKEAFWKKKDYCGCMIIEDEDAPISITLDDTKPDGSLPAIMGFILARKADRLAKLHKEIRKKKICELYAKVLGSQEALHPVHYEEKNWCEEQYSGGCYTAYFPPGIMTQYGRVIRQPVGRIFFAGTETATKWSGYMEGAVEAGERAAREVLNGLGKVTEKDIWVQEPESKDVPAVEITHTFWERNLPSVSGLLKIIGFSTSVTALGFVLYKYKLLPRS
From the text: (§1) Human recombinant monoamine oxidase proteins MAO-A and MAO-B were purchased from Sigma Aldrich. MAOs catalyze the oxidative deamination of primary, secondary and tertiary amines. In order to monitor MAO enzymatic activities and/or their inhibition rate by inhibitor(s) of interest, a fluorescent-based (inhibitor)-screening assay was set up. 3-(2-Aminophenyl)-3-oxopropanamine (kynuramine dihydrobromide, Sigma Aldrich), a non fluorescent compound was chosen as a substrate. Kynuramine is a non-specific substrate for both MAOs activities. While undergoing oxidative deamination by MAO activities, kynuramine is converted into 4-hydroxyquinoline (4-HQ), a resulting fluorescent product.
(§2) The monoamine oxidase activity was estimated by measuring the conversion of kynuramine into 4-hydroxyquinoline. Assays were conducted in 96-well black plates with clear bottom (Corning) in a final volume of 100 μL. The assay buffer was 100 mM HEPES, pH 7.5. Each experiment was performed in duplicate within the same experiment.
(§3) Briefly, a fixed amount of MAO (0.25 μg for MAO-A and 0.5 μg for MAO-B) was incubated on ice for 15 minutes in the reaction buffer, in the absence and/or in the presence of various concentrations of inhibitor (e.g., from 0 to 50 μM, depending on the inhibitor strength).
(§4) After leaving the enzyme(s) interacting with the inhibitor, 60 to 90 μM of kynuramine was added to each reaction for MAO-B and MAO-A assay respectively, and the reaction was left for one hour at 37° C. in the dark. The oxidative deamination of the substrate was stopped by adding 50 μL (v/v) of NaOH 2N. The conversion of kynuramine to 4-hydroxyquinoline, was monitored by fluorescence (excitation at 320 nm, emission at 360 nm) using a microplate reader (Infinite 200, Tecan). Arbitrary units were used to measure levels of fluorescence produced in the absence and/or in the presence of inhibitor.
(§5) The Ki (IC50) of each inhibitor was determined at Vmax/2.

[2] = biological target: T2, Human recombinant LSD1 protein (Homo sapiens, UniProt O60341); assay: LSD1 demethylase inhibition, Amplex Red peroxide/peroxidase-coupled assay; type: biochemical; conditions: further, more elaborate determination (Table 1)
T2 construct: purchased BPS Bioscience Inc
From the text: Compounds for use in the methods of the invention can be identified by their ability to inhibit LSD1. The ability of compounds to inhibit LSD1 can be tested as follows. Human recombinant LSD1 protein was purchased from BPS Bioscience Inc. In order to monitor LSD1 enzymatic activity and/or its inhibition rate by the LSD1 inhibitor(s) of interest, di-methylated H3-K4 peptide (Millipore) was chosen as a substrate. The demethylase activity was estimated, under aerobic conditions, by measuring the release of H2O2 produced during the catalytic process, using the Amplex® Red peroxide/peroxidase-coupled assay kit (Invitrogen).
Within the experiment, each concentration of inhibitor was tested in duplicate. […] The enzymatic reactions were set up in a 50 mM sodium phosphate, pH 7.4 buffer. At the end of the incubation, Amplex® Red reagent and horseradish peroxidase (HPR) solution were added to the reaction according to the recommendations provided by the supplier (Invitrogen), and left to incubate for 30 extra minutes at room temperature in the dark. A 1 μM H2O2 solution was used as a control of the kit efficiency. The conversion of the Amplex® Red reagent to resorufin due to the presence of H2O2 in the assay, was monitored by fluorescence (excitation at 540 nm, emission at 590 nm) using a microplate reader (Infinite 200, Tecan). Arbitrary units were used to measure level of H2O2 produced in the absence and/or in the presence of inhibitor.
The maximum demethylase activity of LSD1 was obtained in the absence of inhibitor and corrected for background fluorescence in the absence of LSD1. The Ki (IC50) of each inhibitor was estimated at half of the maximum activity.

[3] = tested on: platelets; assay: Platelet levels in mice after five once daily i.p. injections; type: in vivo, mice (Hsd:Athymic Nude-Foxnlnu); conditions: blood 60 minutes after last administration
Description: On the fifth day, 60 minutes after the administration, mice were sacrificed and blood was collected in sodium citrate-containing tubes for hemogram analysis. […] Platelet levels were determined in a standard hematology analyzer (Abacus Junior Vet, from Diatron) following the manufacturer's instructions.
(§6) 20% 2-hydroxypropyl-j3-cyclodextrin in H2O was used as a vehicle. When necessary, 10% DMSO was also added in the vehicle. Each day, compounds were administered in a single intraperitoneal injection with administration volumes of 15 ml/kg.
(§7) Mice strain was Hsd:Athymic Nude-Foxnlnu. Animals were maintained in air and temperature controlled cages with regular supply of water and food.

[4] = biological target: T3, Human recombinant monoamine oxidase MAO-B (Homo sapiens, UniProt P27338); assay: MAO-B inhibition, kynuramine fluorescence assay; type: biochemical; conditions: further, more elaborate determination (Table 1)
T3 construct: purchased Sigma Aldrich
T3 sequence (P27338 1-520): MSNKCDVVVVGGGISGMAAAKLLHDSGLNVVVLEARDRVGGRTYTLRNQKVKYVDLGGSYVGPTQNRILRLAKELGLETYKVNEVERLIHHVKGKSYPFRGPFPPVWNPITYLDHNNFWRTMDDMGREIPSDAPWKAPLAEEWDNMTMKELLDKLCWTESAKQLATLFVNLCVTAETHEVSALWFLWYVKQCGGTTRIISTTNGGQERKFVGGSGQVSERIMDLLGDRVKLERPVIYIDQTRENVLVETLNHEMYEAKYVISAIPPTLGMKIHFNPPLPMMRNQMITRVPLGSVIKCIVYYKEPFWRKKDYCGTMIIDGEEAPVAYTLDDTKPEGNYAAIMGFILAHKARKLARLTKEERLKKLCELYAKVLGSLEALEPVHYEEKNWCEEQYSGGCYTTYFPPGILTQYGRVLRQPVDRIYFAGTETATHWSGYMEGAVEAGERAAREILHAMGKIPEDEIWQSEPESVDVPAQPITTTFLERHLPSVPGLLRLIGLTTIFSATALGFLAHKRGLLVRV
From the text: as §1, §2, §3, §4, §5

[5] = tested on: H3K4 methylation in SH-SY5Y cells; assay: Western blot for dimethylated H3K4 in SH-SY5Y cells; type: cell-based
From the text: B-actin was used as a loading control.

[6] = tested on: Lymphocytes; assay: Lymphocyte levels in mice after five once daily injections; type: in vivo, mice (Hsd:Athymic Nude-Foxnlnu); conditions: five consecutive days
Description: (§8) On the fifth day, 60 minutes after the administration, mice were sacrificed and blood was collected in sodium citrate-containing tubes for hemogram analysis. Platelet levels were determined and referred as % of platelets compared with the levels found in mice treated with vehicle. Platelet levels were determined in a standard hematology analyzer (Abacus Junior Vet, from Diatron) following the manufacturer's instructions.
as §6, §7
(§9) Measurements of all blood cell types were conducted in the same manner as described above for platelets. Data in the table above are expressed as the % of cells vs vehicle.

[7] = tested on: Red blood cells; assay: Red blood cell levels in mice after five once daily injections; type: in vivo, mice (Hsd:Athymic Nude-Foxnlnu); conditions: five consecutive days
Description: as §8, §6, §7, §9

[8] = tested on: Granulocytes; assay: Granulocyte levels in mice after five once daily injections; type: in vivo, mice (Hsd:Athymic Nude-Foxnlnu); conditions: five consecutive days
Description: as §8, §6, §7, §9

[9] = tested on: White Blood Cells; assay: White blood cell levels in mice after five once daily injections; type: in vivo, mice (Hsd:Athymic Nude-Foxnlnu); conditions: five consecutive days
Description: as §8, §6, §7, §9

[10] = further, more elaborate determination (Table 1), read-out: MAO-A IC50
[11] = 30 mg/kg i.p. once daily for five days
[12] = 10 mg/kg i.p. once daily for five days
[13] = 20 mg/kg i.p. once daily for five days
[14] = 40 mg/kg i.p. once daily for five days
[15] = 3 mg/kg i.p. once daily for five days

Row | Compound | IC50 [1, 10] [nM] | IC50 [2] [nM] | % platelets vs. Vehicle [3, 11] [%] | IC50 [4] [nM] | % platelets vs. Vehicle [3, 12] [%] | % platelets vs. Vehicle [3, 13] [%] | % platelets vs. Vehicle [3, 14] [%] | other results
1 | CC(C)S(=O)(=O)Nc1cccc(-c2ccc([C@H]3C[C@@H]3N)cc2)c1 (racemic) [Compound 9] | > 1000 | < 70 | 10 | > 10000 |  |  |  | 
2 | NC(=O)CN[C@H]1C[C@@H]1c1ccc(OCc2ccccc2)cc1 (racemic) [Compound 1] | > 2000 | < 200 |  |  | 66 | 55 | 34 | % platelets vs. Vehicle ([3]; 5 mg/kg i.p. once daily for five days): 91%; potency at increasing global dimethylated H3K4 levels as compared to tranylcypromine ([5]; Dual-1 at 100 μM vs parnate at 250 μM): ten-fold or more potent; H3K4 methylation (western blot) ([5]; compound at 100 μM, one, two, and three days): increases H3K4 methylation in cells in a time dependent manner
3 | N[C@H]1C[C@@H]1c1ccc(-c2cccc(C(F)(F)F)c2)nc1 (racemic) [Compound 6] |  |  | 63 |  | 87 |  |  | 
4 | NC(=O)CN[C@H]1C[C@@H]1c1ccc(OCc2ccccc2)cc1 (single isomer, unassigned) [Compound 2] | > 2000 | < 200 |  |  |  | 35 | 27 | % platelets vs. Vehicle ([3]; 60 mg/kg i.p. once daily for five days): 16%
5 | CS(=O)(=O)Nc1cccc(-c2ccc([C@H]3C[C@@H]3N)cn2)c1 (racemic) [Compound 8] |  |  |  |  |  | 68 | 44 | 
6 | N[C@H]1CCN(CCN[C@H]2C[C@@H]2c2ccc(-c3cccc(C(F)(F)F)c3)cc2)C1 (racemic) [Compound 4] | > 2000 | < 100 | 7 | > 2000 | 19 |  |  | % platelets vs. Vehicle [3, 15]: 87%; % platelets vs. Vehicle ([3]; 9 mg/kg i.p. once daily for five days): 30%; % platelets vs. Vehicle ([3]; 18 mg/kg i.p. once daily for five days): 19%; % platelets vs. Vehicle ([3]; 36 mg/kg i.p. once daily for five days): 11%
7 | CN1CCN(C(=O)CN[C@H]2C[C@@H]2c2ccc(OCc3ccccc3)cc2)CC1 (racemic) [Compound 3] | > 2000 |  |  |  | 5 |  |  | Lymphocytes, % of cells vs vehicle ([6]; 1 mg/kg): 115%; Lymphocytes, % of cells vs vehicle ([6]; 3 mg/kg): 90%; Lymphocytes, % of cells vs vehicle ([6]; 10 mg/kg): 35%; % platelets vs. Vehicle ([3]; 1 mg/kg i.p. once daily for five days): 46%; % platelets vs. Vehicle [3, 15]: 16%; Red blood cells, % of cells vs vehicle ([7]; 1 mg/kg): 103%; Red blood cells, % of cells vs vehicle ([7]; 3 mg/kg): 101%; Red blood cells, % of cells vs vehicle ([7]; 10 mg/kg): 92%; Granulocytes, % of cells vs vehicle ([8]; 1 mg/kg): 69%; Granulocytes, % of cells vs vehicle ([8]; 3 mg/kg): 63%; Granulocytes, % of cells vs vehicle ([8]; 10 mg/kg): 23%; White Blood Cells, % of cells vs vehicle ([9]; 1 mg/kg): 86%; White Blood Cells, % of cells vs vehicle ([9]; 3 mg/kg): 76%; White Blood Cells, % of cells vs vehicle ([9]; 10 mg/kg): 29%
8 | N[C@H]1C[C@@H]1c1ccc(-c2cccc(O)c2)cc1 (racemic) [Compound 7] | > 200 | < 70 |  | > 1000 |  |  |  | IC50 ([1]; initial determination, read-out: IC50 for MAO-A): > 1000 nM; % platelets vs. Vehicle ([3]; 17 mg/kg i.p. once daily for five days): 56%; % platelets vs. Vehicle ([3]; 34 mg/kg i.p. once daily for five days): 46%; % platelets vs. Vehicle ([3]; 52 mg/kg i.p. once daily for five days): 63%
